For this experiment, the target named is T1, human M1 receptor (hCHRM1) (Homo sapiens, UniProt P11229).
T1 construct: expressed in transfected cells; host or cells: CHO-K1
T1 sequence (P11229 1-460): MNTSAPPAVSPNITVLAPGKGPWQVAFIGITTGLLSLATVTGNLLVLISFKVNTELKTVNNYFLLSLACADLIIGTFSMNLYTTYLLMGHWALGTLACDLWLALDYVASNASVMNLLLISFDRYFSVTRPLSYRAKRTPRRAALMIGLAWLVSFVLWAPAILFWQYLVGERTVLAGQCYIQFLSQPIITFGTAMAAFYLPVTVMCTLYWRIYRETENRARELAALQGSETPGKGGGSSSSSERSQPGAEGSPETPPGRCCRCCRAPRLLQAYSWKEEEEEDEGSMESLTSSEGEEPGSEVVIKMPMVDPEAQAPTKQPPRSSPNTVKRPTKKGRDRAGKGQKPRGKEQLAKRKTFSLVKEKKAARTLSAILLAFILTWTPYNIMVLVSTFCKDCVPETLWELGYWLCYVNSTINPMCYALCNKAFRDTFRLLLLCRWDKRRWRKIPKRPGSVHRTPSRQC
As to the kind of experiment: Measurement of M1 receptor positive allosteric modulator (M1PAM) activity, calcium fluorescence with acetylcholine at EC20. Type of experiment: cell-based. Particulars: for activity (%) at 10 μM: 10 μM test compound, 100% = 1 μM acetylcholine, 0% = DMSO; for EC50: CHO-K1 cells expressing hCHRM1, acetylcholine at EC20 (final 0.8-1.0 nM), read-out: IP value (inflection point in the concentration-dependent curve). As for the experimental part: Measurement of M1 Receptor Positive Allosteric Modulator (M1PAM) Activity
The activity of a test compound in the presence of acetylcholine at EC20 concentration (final concentration 0.8-1.0 nM), which affords an action corresponding to about 20% of the maximum activity, was measured as PAM activity. The method is as follows. CHO-K1 cells stably expressing a human M1 receptor (hCHRM1) were plated on a 384-well black clear bottom plate (BD Falcon) at 5,000 cells/well, and cultured in an incubator at 37° C., 5% CO2 for 1 day. The medium in the cell plate was removed, and assay buffer A containing calcium indicator (Recording medium (DOJINDO LABORATORIES), 0.1% BSA (Wako Pure Chemical Industries, Ltd.), 2.5 μg/mL Fluo-4 AM (DOJINDO LABORATORIES), 0.08% Pluronic F127 (DOJINDO LABORATORIES), 1.25 mM probenecid (DOJINDO LABORATORIES)) was added at 30 μL/well. The cells were left standing in the incubator at 37° C., 5% CO2 for 30 min, and further left standing at room temperature for 30 min. A test compound prepared by diluting with assay buffer B (HBSS (Invitrogen), 20 mM HEPES (Invitrogen), 0.1% BSA) containing 3.2-4.0 nM acetylcholine was added at 10 μL/well, and the fluorescence was measured by FDSS/μCELL (Hamamatsu Photonics K.K.) for 1 min every for 1 second. With the definition that the amount of change in the fluorescence on addition of acetylcholine (final concentration 1 μM) is 100% and that on addition of DMSO instead of a test compound is 0%, the activity (%) of the test compound was calculated, and the inflection point in the concentration-dependent curve of the test compound was calculated as IP values.

On to `O=C(NC1CC(F)(F)CCC1O)c1cc(Cc2ccc(-n3cccn3)cc2)c2c(n1)CCO2` (single isomer, unassigned) [Example 27, N-(trans-5,5-difluoro-2-hydroxycyclohexyl)-7-(4-(1H-pyrazol-1-yl)benzyl)-2,3-dihydrofuro[3,2-b]pyridine-5-carboxamide], for which the “activity (%) at 10 μM” value amounted to 100% and the EC50 amounted to 4.5 nM.

Take `O=C(N[C@@H]1CCC(F)(F)C[C@H]1O)c1cc(Cc2ccc(-n3cccn3)cc2)c2c(n1)CCO2` (single isomer, unassigned) [Example 46, N-(trans-4,4-difluoro-2-hydroxycyclohexyl)-7-(4-(1H-pyrazol-1-yl)benzyl)-2,3-dihydrofuro[3,2-b]pyridine-5-carboxamide]: the “activity (%) at 10 μM” value is 107% and the EC50 came to 4.3 nM.

Turning to `Cn1cc(-c2ccc(C(F)c3cc(C(=O)N[C@H]4CCOC[C@@H]4O)nc4ccoc34)cn2)cn1` (single isomer, unassigned) [Example 51, 1,5-anhydro-2,3-dideoxy-3-(((7-(fluoro(6-(1-methyl-1H-pyrazol-4-yl)pyridin-3-yl)methyl)furo[3,2-b]pyridin-5-yl)carbonyl)amino)-L-threo-pentitol], the “activity (%) at 10 μM” value worked out at 104% and the EC50 came out at 0.88 nM.

For the molecule `Cn1cc(-c2ccc(C(F)c3cc(C(=O)N[C@H]4CCOC[C@@H]4O)nc4ccoc34)cc2)nn1` (single isomer, unassigned) [Example 56, 1,5-anhydro-2,3-dideoxy-3-(((7-(fluoro(4-(1-methyl-1H-1,2,3-triazol-4-yl)phenyl)methyl)furo[3,2-b]pyridin-5-yl)carbonyl)amino)-L-threo-pentitol], the “activity (%) at 10 μM” value is on record as 106% and the EC50 was found to be 42 nM.

As for `Cn1cc(-c2ccc(C(F)c3cc(C(=O)N[C@H]4CCCC[C@@H]4O)nc4ccoc34)cc2)nn1` (single isomer, unassigned) [Example 57], the “activity (%) at 10 μM” value is 99% and the EC50 came to 1.1 nM.

Take `O=C(N[C@H]1COCC[C@@H]1O)c1cc(Cc2ccc(-n3cccn3)cc2)c2c(n1)CCO2` [Example 3, 1,5-anhydro-2,4-dideoxy-2-(((7-(4-(1H-pyrazol-1-yl)benzyl)-2,3-dihydrofuro[3,2-b]pyridin-5-yl)carbonyl)amino)-L-threo-pentitol]: the “activity (%) at 10 μM” value is reported as 100% and the EC50 amounted to 13 nM.

Turning to `Cn1ccc(-c2ccc(Cc3cc(C(=O)N[C@H]4COCC[C@@H]4O)nc4c3OCC4)cc2)n1` [Example 8, 1,5-anhydro-2,4-dideoxy-2-(((7-(4-(1-methyl-1H-pyrazol-3-yl)benzyl)-2,3-dihydrofuro[3,2-b]pyridin-5-yl)carbonyl)amino)-L-threo-pentitol], the “activity (%) at 10 μM” value came to 100% and the EC50 came out at 7.9 nM.

In the case of `Cc1csc(-c2ccc(Cc3cc(C(=O)N[C@H]4CCCC[C@@H]4O)nc4c3OCC4)cc2)n1` [Example 16, N-((1S,2S)-2-hydroxycyclohexyl)-7-(4-(4-methyl-1,3-thiazol-2-yl)benzyl)-2,3-dihydrofuro[3,2-b]pyridine-5-carboxamide], the “activity (%) at 10 μM” value is recorded as 100% and the EC50 was 10 nM.

As to `Cc1ncc(-c2ccc(Cc3cc(C(=O)N[C@H]4CCCC[C@@H]4O)nc4c3OCC4)cc2)s1` [Example 18, N-((1S,2S)-2-hydroxycyclohexyl)-7-(4-(2-methyl-1,3-thiazol-5-yl)benzyl)-2,3-dihydrofuro[3,2-b]pyridine-5-carboxamide], the “activity (%) at 10 μM” value is listed as 97% and the EC50 stood at 12 nM.

Take `Cn1cc(-c2ccc(Cc3cc(C(=O)N[C@H]4COCC[C@@H]4O)nc4ccoc34)cc2)nn1` [Example 21, 1,5-anhydro-2,4-dideoxy-2-(((7-(4-(1-methyl-1H-1,2,3-triazol-4-yl)benzyl)furo[3,2-b]pyridin-5-yl)carbonyl)amino)-L-threo-pentitol]: the “activity (%) at 10 μM” value is on record as 100% and the EC50 was 1.6 nM.

For `Cn1cc(-c2ccc(Cc3cc(C(=O)N[C@H]4CCCC[C@@H]4O)nc4ccoc34)cc2)nn1` [Example 23, N-((1S,2S)-2-hydroxycyclohexyl)-7-(4-(1-methyl-1H-1,2,3-triazol-4-yl)benzyl)furo[3,2-b]pyridine-5-carboxamide], the “activity (%) at 10 μM” value is listed as 99% and the EC50 turned out to be 1.5 nM.

Consider `Cn1ccc(-c2ccc(Cc3cc(C(=O)N[C@H]4CCOC[C@@H]4O)nc4c3OCC4)cc2)n1` [Example 28, 1,5-anhydro-2,3-dideoxy-3-(((7-(4-(1-methyl-1H-pyrazol-3-yl)benzyl)-2,3-dihydrofuro[3,2-b]pyridin-5-yl)carbonyl)amino)-L-threo-pentitol], for which the “activity (%) at 10 μM” value is 101% and the EC50 came to 2.3 nM.

`Cn1cc(-c2ccc(Cc3cc(C(=O)N[C@H]4CCOC[C@@H]4O)nc4ccoc34)cn2)nn1` [Example 34, 1,5-anhydro-2,3-dideoxy-3-(((7-((6-(1-methyl-1H-1,2,3-triazol-4-yl)pyridin-3-yl)methyl)furo[3,2-b]pyridin-5-yl)carbonyl)amino)-L-threo-pentitol]: the “activity (%) at 10 μM” value was determined as 100% and the EC50 amounted to 2.4 nM.

`Cn1cc(-c2ccc(Cc3cc(C(=O)N[C@H]4CCOC[C@@H]4O)nc4ccoc34)cc2)cn1` [Example 40, 1,5-anhydro-2,3-dideoxy-3-(((7-(4-(1-methyl-1H-pyrazol-4-yl)benzyl)furo[3,2-b]pyridin-5-yl)carbonyl)amino)-L-threo-pentitol]: the “activity (%) at 10 μM” value was 98% and the EC50 is 1.6 nM.

On to `Cc1cc(-c2ccc(Cc3cc(C(=O)N[C@H]4CCOC[C@@H]4O)nc4ccoc34)cc2)cnn1` [Example 43, 1,5-anhydro-2,3-dideoxy-3-(((7-(4-(6-methylpyridazin-4-yl)benzyl)furo[3,2-b]pyridin-5-yl)carbonyl)amino)-L-threo-pentitol], for which the “activity (%) at 10 μM” value is 110% and the EC50 turned out to be 2.4 nM.

With `Cn1cc(-c2ccc(Cc3cc(C(=O)N[C@H]4CCCC[C@@H]4O)nc4c3OCC4)cc2)nn1` [Example 47, N-((1S,2S)-2-hydroxycyclohexyl)-7-(4-(1-methyl-1H-1,2,3-triazol-4-yl)benzyl)-2,3-dihydrofuro[3,2-b]pyridine-5-carboxamide], the “activity (%) at 10 μM” value is listed as 101% and the EC50 is 1.8 nM.

Turning to `O=C(N[C@H]1CCOC[C@@H]1O)c1cc(Cc2ccc(-n3cccn3)cc2)c2occc2n1` [Example 48, 1,5-anhydro-2,3-dideoxy-3-(((7-(4-(1H-pyrazol-1-yl)benzyl)furo[3,2-b]pyridin-5-yl)carbonyl)amino)-L-threo-pentitol], the “activity (%) at 10 μM” value is given as 103% and the EC50 was 1.1 nM.

In the case of `Cc1nccc(-c2ccc(Cc3cc(C(=O)N[C@H]4CCOC[C@@H]4O)nc4ccoc34)cc2)n1` [Example 49, 1,5-anhydro-2,3-dideoxy-3-(((7-(4-(2-methylpyrimidin-4-yl)benzyl)furo[3,2-b]pyridin-5-yl)carbonyl)amino)-L-threo-pentitol], the “activity (%) at 10 μM” value is listed as 104% and the EC50 was 2.9 nM.
